According to patent US20230391778A1, “INDOLIN-2-ONE OR PYRROLO -PYRIDIN -2 -ONE DERIVATIVES” (Hoffmann-La Roche Inc., priority 2014, published 2023):

Tests used:
[1] = target: T1, mouse ENT-1 transporter (Mus musculus, UniProt Q9JIM1); experiment: Measure of adenosine transport activity (ENT1 adenosine uptake inhibition); assay type: cell-based; conditions: stable cells expressing mouse ENT-1, [2,8-3H]-adenosine 6 nM, 20 min
T1 construct: expressed in transfected cells
T1 sequence (Q9JIM1 1-460): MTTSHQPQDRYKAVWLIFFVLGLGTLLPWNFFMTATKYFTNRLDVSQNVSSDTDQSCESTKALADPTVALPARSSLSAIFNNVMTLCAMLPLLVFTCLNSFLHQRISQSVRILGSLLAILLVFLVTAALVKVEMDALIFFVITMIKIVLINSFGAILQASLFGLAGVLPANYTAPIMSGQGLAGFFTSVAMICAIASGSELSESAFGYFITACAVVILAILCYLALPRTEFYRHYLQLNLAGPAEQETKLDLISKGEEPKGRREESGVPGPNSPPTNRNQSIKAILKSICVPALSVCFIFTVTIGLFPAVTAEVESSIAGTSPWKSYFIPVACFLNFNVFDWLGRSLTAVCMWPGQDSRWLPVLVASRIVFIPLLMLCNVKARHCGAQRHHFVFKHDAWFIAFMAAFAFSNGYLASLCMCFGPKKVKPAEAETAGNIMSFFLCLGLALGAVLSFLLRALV
Method in brief: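 Stable mouse ENT-1 cells, 60,000/well, washed into pH 7.4 Hepes-Tris uptake buffer and incubated at RT with compound (1% DMSO final) for 20 min with shaking. Non-specific uptake defined with 10 μM NBTI; cell-associated radioactivity counted by scintillation after ice-cold washes.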

[2] = tested on: L-687,414-induced hyperlocomotion; experiment: L-687,414-induced hyperlocomotion; assay type: in vivo, mouse; conditions: Dose ip 30 mg/kg, mice, 50 mg/kg s.c. L-687,414; for inhibition in vivo at 30 mg/kg: Mus musculus
Method: The described compounds of formula I reduce L-687,414-induced hyperlocomotion. This was assessed by using a computerized Digiscan 16 Animal Activity Monitoring System (Omnitech Electronics, Columbus, Ohio) to quantify locomotor activity. Animals were kept under a 12 h light/dark cycle and experiments were performed during the light period. Each activity monitoring chamber consisted of a Plexiglas box (41×41×28 cm; W×L×H) with sawdust bedding on the floor surrounded by invisible horizontal and vertical infrared sensor beams. The test boxes were divided by a Plexiglas cross providing each mouse with 20×20 cm of moving space. Cages were connected to a Digiscan Analyzer linked to a computer that constantly collected the beam status information. Records of photocell beam interruptions for individual animals were taken every 5 min over the duration of the experimental session and the sum of the first 6 periods was used as the final parameter. At least 8 mice were used in each treatment group. Compounds were administered either p.o. 15 min before a s.c. injection of 50 mg/kg of L-687,414, or i.p. at the same time as a s.c. injection of 50 mg/kg of L-687,414. Mice were then transferred from their home cage to the recording chambers for a 15-min habituation phase allowing free exploration of the new environment. Horizontal activity was then recorded for a 30-min time period. The % inhibition of L-687,414-induced hyperlocomotion was calculated according to the equation:
((Veh+L-687,414 horizontal activity−drug+L-687,414 horizontal activity)/Veh+L-687,414 horizontal activity)×100
ID50 values, defined as doses of each compound producing 50% inhibition of L-687,414-induced hyperlocomotion, were calculated by linear regression analysis of a dose-response data using an Excel-based computer-fitting program.
As data was not presupposed to be normally distributed, groups treated with test compounds were statistically compared with the control (vehicle-treated) group using one-tailed Mann Whitney U tests. In statistics, the Mann-Whitney U test (also called the Mann-Whitney-Wilcoxon (MWW) or Wilcoxon rank-sum test) is a non-parametric statistical hypothesis test for assessing whether one of two samples of independent observations tends to have larger values than the other. It is one of the most well-known non-parametric significance tests. […] P values given in table 1 are one-tailed since only decreases in locomotion were expected and tested for (Mann, H. B., Whitney, D. R. (1947), “On a Test of Whether one of Two Random Variables is Stochastically Larger than the Other”, Annals of Mathematical Statistics, 18 (1), 50-60).

[3] = tested on: mice; experiment: SmartCube behavioral signature similarity analysis; assay type: in vivo, mouse; parameters: key to discrimination rate vs Clozapine (similarity analysis) / discrimination rate vs Olanzapine (similarity analysis) / discrimination rate vs Risperidone (similarity analysis): fraction; 0.5 = zero distinguishability between the two drugs; conditions: for discrimination rate vs Clozapine (similarity analysis) / discrimination rate vs Olanzapine (similarity analysis) / discrimination rate vs Risperidone (similarity analysis): 5 mg/kg i.p., SmartCube, rate of 0.70 or lower = similar
Text: In addition to the reversal of L-687,414 induced hyperlocomotion experiment as described above, some compounds of the present invention have been tested in SmartCube®, an automated system in which the behaviors of compound-treated mice in response to multiple challenges are captured by digital video and analyzed with computer algorithms (Roberds et al., Frontiers in Neuroscience, 2011, Vol. 5, Art. 103, 1-4; Vadim Alexandrov, Dani Brunner, Taleen Hanania, Emer Leahy Eur. J. Pharmacol. 2015, 750, 82-99). In this way, the neuro-pharmacological effects of a test compound can be predicted by similarity to major classes of compounds, such as antipsychotics, anxiolytics and antidepressants.
As mentioned above, some compounds have been tested in SmartCube©, an analytical system developed by PsychoGenics Inc.
SmartCube® was used to compare the behavioral signature of a test compound to a database of behavioral signatures obtained from a large set of clinically approved reference drugs, grouped per indications. In this way, the neuro-pharmacological effects of a test compound can be predicted by similarity to major classes of compounds, such as antipsychotics, anxiolytics and antidepressants. This approach is ideally suited to screen collections of existing drugs or drug candidates with previously unknown neuropharmacology, which could expedite the development of new and unexpected treatments for psychiatric disorders.
Some compounds of the present invention were injected i.p. at different doses 15 minutes before the test. At least 8 mice were used in each treatment group. Digital videos of the subjects were processed with computer vision algorithms to extract over 2000 dependent measures including frequency and duration of many different behavioral states. The results of the classifications are presented as bar charts for each compound and dose (mg/kg), the Y-axis indicates the relative probability that the test compound will show efficacy in the specific CNS indication.
For comparison, the behavioral signatures of the atypical antipsychotics clozapine, olanzapine and risperidone are shown in FIG. 2. Compounds of the present invention show similar signatures to those of atypical antipsychotics. An independent analysis was performed on the unclassified data to determine the similarity of the example compounds to active doses of known atypical antipsychotics. For this analysis, we use discrimination rate as the measure of separability between the two drugs, i.e. one drug's “distinguishability” from another. A rate equal to 50% (or 0.5) corresponds to zero distinguishability. […] In most cases, the example compounds show a similarity to risperidone, clozapine and olanzapine with a discrimination rate of <0.70.

Molecule	IC50 [1] [µM]	inhibition in vivo at 30 mg/kg [2] [%]	further results
3,3-dimethyl-1,6-bis(5-methylpyrazin-2-yl)indolin-2-one [Example 91]	1.82		L-687,414-induced hyperlocomotion Inhibition, ip [%] [2]: 73.7%
Cc1ncc(-c2ccc3c(c2)N(c2cn(C)cn2)C(=O)C3(C)C)cn1 [Example 2, 3,3-Dimethyl-1-(1-methyl-1H-imidazol-4-yl)-6-(2-methylpyrimidin-5-yl)indolin-2-one]	0.613	95.7	
Cc1ncc(-c2ccc3c(c2)N(c2ccn(C)n2)C(=O)C3(C)C)cn1 [Example 4, 3,3-Dimethyl-1-(1-methyl-1H-pyrazol-3-yl)-6-(2-methylpyrimidin-5-yl)indolin-2-one]	0.951	93.4	
Cc1cc(N2C(=O)C(C)(C)c3ccc(-c4cnc(C)nc4)cc32)c(F)cn1 [Example 25, 1-(5-Fluoro-2-methylpyridin-4-yl)-3,3-dimethyl-6-(2-methylpyrimidin-5-yl)indolin-2-one]			SmartCube similarity to major drug classes [3]: similarity to atypical antipsychotics; discrimination rate vs Clozapine (similarity analysis) [3]: 0.61; discrimination rate vs Olanzapine (similarity analysis) [3]: 0.62; discrimination rate vs Risperidone (similarity analysis) [3]: 0.74
CC(C)c1cn(-c2ccc3c(c2)N(c2ccn(C)n2)C(=O)C3(C)C)cn1 [Example 37, 6-(4-Isopropylimidazol-1-yl)-3,3-dimethyl-1-(1-methylpyrazol-3-yl)indolin-2-one]	6.75	73.8	
Cc1ncc(-c2ccc3c(c2)N(c2ccnc(F)c2)C(=O)C3(C)C)cn1 [Example 45, 1-(2-Fluoropyridin-4-yl)-3,3-dimethyl-6-(2-methylpyrimidin-5-yl)indolin-2-one]	1	80.5	
Cc1cnc(N2C(=O)C(C)(C)c3ccc(-c4cnc(C)nc4)cc32)nc1 [Example 53, 3,3-Dimethyl-1-(5-methylpyrimidin-2-yl)-6-(2-methylpyrimidin-5-yl)indolin-2-one]	1.52		SmartCube similarity to major drug classes [3]: similarity to atypical antipsychotics; discrimination rate vs Clozapine (similarity analysis) [3]: 0.59; discrimination rate vs Olanzapine (similarity analysis) [3]: 0.61; discrimination rate vs Risperidone (similarity analysis) [3]: 0.62
Cc1ncc(-c2ccc3c(c2)N(c2cnccn2)C(=O)C3(C)C)cn1 [Example 77, 3,3-dimethyl-6-(2-methylpyrimidin-5-yl)-1-(pyrazin-2-yl)indolin-2-one]	2.41	92.6	
Cc1ncc(-c2ccc3c(c2)N(c2ccnnc2)C(=O)C3(C)C)cn1 [Example 120, 3,3-dimethyl-6-(2-methylpyrimidin-5-yl)-1-(pyridazin-4-yl)indolin-2-one]	3.6	90.8	
Cc1ncc(-c2ccc3c(c2)N(c2cnnc(Cl)c2)C(=O)C3(C)C)cn1 [Example 126, 1-(6-chloropyridazin-4-yl)-3,3-dimethyl-6-(2-methylpyrimidin-5-yl)indolin-2-one]	2.21	74.7	
Cc1ncc(-c2ccc3c(c2)N(c2nccnc2C)C(=O)C3(C)C)cn1 [Example 127, 3,3-dimethyl-1-(3-methylpyrazin-2-yl)-6-(2-methylpyrimidin-5-yl)indolin-2-one]	7.73	72.8	

Second part, led by results:

IC50 [1] [µM]	Molecule	inhibition in vivo at 30 mg/kg [2] [%]	further results
0.431	Cc1ncc(-c2ccc3c(c2)N(c2ccncc2)C(=O)C3(C)C)cn1 [Example 1, 3,3-Dimethyl-6-(2-methylpyrimidin-5-yl)-1-(pyridin-4-yl)indolin-2-one]	95.4	
0.055	Cc1ccc(N2C(=O)C(C)(C)c3ccc(-c4cnc(C)nc4)cc32)nn1 [Example 48, 3,3-Dimethyl-1-(6-methylpyridazin-3-yl)-6-(2-methylpyrimidin-5-yl)indolin-2-one]		SmartCube similarity to major drug classes [3]: similarity to atypical antipsychotics; discrimination rate vs Clozapine (similarity analysis) [3]: 0.58; discrimination rate vs Olanzapine (similarity analysis) [3]: 0.61; discrimination rate vs Risperidone (similarity analysis) [3]: 0.67
0.34	Cc1ncc(-c2ccc3c(c2)N(c2ccc(C)c(C)n2)C(=O)C3(C)C)cn1 [Example 70, 1-(5,6-dimethylpyridin-2-yl)-3,3-dimethyl-6-(2-methylpyrimidin-5-yl)indolin-2-one]	93.5	
0.047	Cc1ncc(-c2ccc3c(c2)N(c2cnc(C4CC4)cn2)C(=O)C3(C)C)cn1 [Example 95, 1-(5-cyclopropylpyrazin-2-yl)-3,3-dimethyl-6-(2-methylpyrimidin-5-yl)indolin-2-one]	76.9	
0.102	Cc1ncc(-c2ccc3c(c2)N(c2cncc(C4CC4)n2)C(=O)C3(C)C)cn1 [Example 97, 1-(6-cyclopropylpyrazin-2-yl)-3,3-dimethyl-6-(2-methylpyrimidin-5-yl)indolin-2-one]	78.5	
0.203	Cc1ncc(-c2ccc3c(c2)N(c2ncc(Cl)cn2)C(=O)C3(C)C)cn1 [Example 113, 1-(5-chloropyrimidin-2-yl)-3,3-dimethyl-6-(2-methylpyrimidin-5-yl)indolin-2-one]	91.1	
0.226	Cc1cc(N2C(=O)C(C)(C)c3ccc(-c4cnc(C)nc4)cc32)sn1 [Example 124, 3,3-dimethyl-1-(3-methylisothiazol-5-yl)-6-(2-methylpyrimidin-5-yl)indolin-2-one]	53.3	
0.132	Cc1ncc(-c2ccc3c(c2)N(c2ncc(C)s2)C(=O)C3(C)C)cn1 [Example 125, 3,3-dimethyl-6-(2-methylpyrimidin-5-yl)-1-(5-methylthiazol-2-yl)indolin-2-one]	52	
